We go through one compound from patent US20080234254A1, “Inhibitors of Histone Deacetylase” (UNIVERSITY OF LEEDS, priority 2004, published 2008).

Where two headings read alike, the source gives them in different places.

The test system of the experiment is RXF 393. Kind of experiment: Screening against cancer cell lines: RXF 393 (Renal). The format is cell-based. The text has this:
Screening of Benzamide Derivatives Against Cancer Cell Lines Tables 1 and 2 tabulate by way of example the results obtained for compounds (4) and (6).
7 renal cancer cell lines were screened against both compound (4) and MS275.

As to `C=C(CN1CCc2ccccc2C1)c1ccc(C(=O)Nc2ccccc2N)cc1` [Compound (4), N-(2-Amino-phenyl)-4-[1-(3,4-dihydroisoquinolin-2(1H)-ylmethyl)vinyl]benzamide], the GI50 is 102 nM (Homo sapiens, RXF 393, Renal, Table 1, read-out: GI50) and 100 nM (Homo sapiens, RXF 393, renal cancer, comparison versus MS275, read-out: potency (quantity not named; values match GI50 of Table 1)). Further, the CC50 (Homo sapiens, RXF 393, Renal, Table 1, read-out: LC50 (the source's name)) was determined as 46000 nM. For the same compound, the total growth inhibition concentration (TGI) (RXF 393, Renal, Table 1) came to 600 nM.
